These results are taken from patent US20260137697A1, “THIAZOLO[5,4-D]PYRIMIDINE COMPOUNDS, COMPOSITIONS COMPRISING THEM AND USES THEREOF” (University de Montreal, priority 2022, published 2026).

The IC50 is the concentration that inhibits the measured activity by half.

In one assay the test system is pERK, HCT116 cells. Nature of the assay: Phospho-ERK inhibition, AlphaLISA p-ERK 1/2, HCT-116. Type of assay: cell-based, human. Conditions: Table 3; for IC50: HCT116 cells (KRAS G13D), 1 h treatment; for HCT116 pERK (Ymin %): lowest % inhibition value of the pERK IC50 curve, above −20% = no paradoxical induction. An outline of the steps:
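Cells in RPMI-1640 with 5% FBS plated overnight, then treated 1 h with ten-point dilutions (10 μM to 0.33 nM, 0.5% DMSO). Lysate p-ERK1/2 (Thr202/Tyr204) read by AlphaLISA SureFire Ultra; % inhibition normalised to DMSO and 1 μM trametinib background, IC50 by four-parameter fit.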
Background: In Alpha technology, singlet oxygen from a donor bead excites a nearby acceptor bead.

The next assay concerns the target T1, CRAF (Homo sapiens, UniProt P04049).
T1 construct: fused on or other part: GST tag (N-terminal according to the vendor's product)
Nature of the assay: CRAF kinase activity assay (ADP-Glo). In kind it is biochemical. Conditions: Table 3; 10 μM ATP, kinase-dead MEK1 substrate. An outline of the steps:
(§1)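 ADP-Glo luminescence read after 2 h reactions at 30° C containing 0.375 nM GST-kinase, kinase-dead MEK1 (75 nM), ATP at 10 μM, pH 7.5 HEPES/MgCl2/DTT, 0.05% DMSO. Compounds dosed from 100 to 0.01 nM (nine points); IC50 from variable-slope fit of % inhibition.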

A further assay concerns the target T2, BRAF (Homo sapiens, UniProt P15056).
T2 construct: GST; purchased Millipore Sigma B4062-10UG
Nature of the assay: BRAF kinase activity assay (ADP-Glo). Conditions: Table 3; 10 μM ATP, kinase-dead MEK1 substrate. Type of assay: biochemical. The essentials:
as §1
For orientation: In ADP-Glo the light output rises with the ADP produced.

T2 sequence (P15056 whole entry): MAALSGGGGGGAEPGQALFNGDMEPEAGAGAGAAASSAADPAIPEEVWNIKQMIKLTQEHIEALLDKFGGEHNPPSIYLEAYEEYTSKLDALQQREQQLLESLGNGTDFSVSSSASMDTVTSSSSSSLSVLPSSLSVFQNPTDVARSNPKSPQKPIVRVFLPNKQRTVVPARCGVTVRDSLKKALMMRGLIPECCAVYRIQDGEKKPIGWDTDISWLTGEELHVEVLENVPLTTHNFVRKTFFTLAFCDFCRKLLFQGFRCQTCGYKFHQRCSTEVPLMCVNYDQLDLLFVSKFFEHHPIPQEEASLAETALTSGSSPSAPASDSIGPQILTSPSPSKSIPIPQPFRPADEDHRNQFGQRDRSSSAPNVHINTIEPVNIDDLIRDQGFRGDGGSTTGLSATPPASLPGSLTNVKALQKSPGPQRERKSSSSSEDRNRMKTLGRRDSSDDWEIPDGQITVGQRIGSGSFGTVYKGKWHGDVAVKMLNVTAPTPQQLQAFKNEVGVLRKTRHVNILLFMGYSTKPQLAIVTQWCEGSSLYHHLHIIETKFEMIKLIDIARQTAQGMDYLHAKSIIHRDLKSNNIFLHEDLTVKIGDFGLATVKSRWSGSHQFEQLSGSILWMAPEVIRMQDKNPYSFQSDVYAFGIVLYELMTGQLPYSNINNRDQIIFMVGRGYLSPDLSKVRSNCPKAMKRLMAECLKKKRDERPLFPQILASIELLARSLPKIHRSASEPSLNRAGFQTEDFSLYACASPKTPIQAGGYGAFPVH
T1 sequence (P04049 whole entry Y340E/Y341E, form open, the tested form may be a part): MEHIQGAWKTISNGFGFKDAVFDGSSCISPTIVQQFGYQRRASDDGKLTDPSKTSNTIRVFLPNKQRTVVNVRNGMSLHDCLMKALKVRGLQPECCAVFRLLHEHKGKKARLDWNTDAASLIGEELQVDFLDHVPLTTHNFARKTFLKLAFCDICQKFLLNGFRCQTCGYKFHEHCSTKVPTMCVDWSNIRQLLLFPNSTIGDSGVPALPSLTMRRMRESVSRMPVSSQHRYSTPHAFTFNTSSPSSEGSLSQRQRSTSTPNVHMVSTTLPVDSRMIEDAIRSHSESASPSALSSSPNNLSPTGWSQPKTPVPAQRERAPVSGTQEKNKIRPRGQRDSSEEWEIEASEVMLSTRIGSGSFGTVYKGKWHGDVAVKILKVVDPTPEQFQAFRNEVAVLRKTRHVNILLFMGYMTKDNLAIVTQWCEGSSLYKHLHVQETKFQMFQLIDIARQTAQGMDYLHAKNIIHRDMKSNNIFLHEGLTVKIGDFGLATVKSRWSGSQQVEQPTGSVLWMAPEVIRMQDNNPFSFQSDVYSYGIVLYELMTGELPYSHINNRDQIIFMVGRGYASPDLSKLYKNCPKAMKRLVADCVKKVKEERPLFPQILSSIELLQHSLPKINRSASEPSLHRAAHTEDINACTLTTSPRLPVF

Turning to `N#Cc1cccc2c1ncn2-c1nc2c(Nc3c(F)ccc(NS(=O)(=O)c4cccc(Cl)c4Cl)c3F)ncnc2s1` [Example 120], the IC50 in the assay with pERK, HCT116 cells (Homo sapiens, HCT-116) is < 500 nM; at CRAF, < 10 nM; on BRAF, 1 to 10 nM.

Consider `O=S(=O)(Nc1ccc(F)c(Nc2ncnc3sc(-n4cnc(CCO)c4)nc23)c1F)c1cccc(Cl)c1Cl` [Example 121], for which the IC50 lay within 500 to 1000 nM in the assay with pERK, HCT116 cells; 10 to 50 nM at CRAF; 1 to 10 nM on BRAF. Besides, the “HCT116 pERK (Ymin %)” value in the assay on pERK, HCT116 cells was −11%.

Consider `NC(=O)c1cccc2c1ncn2-c1nc2c(Nc3c(F)ccc(NS(=O)(=O)c4cccc(Cl)c4Cl)c3F)ncnc2s1` [Example 123], for which the IC50 was < 500 nM with pERK, HCT116 cells; < 10 nM on CRAF; 1 to 10 nM on BRAF. Also, the “HCT116 pERK (Ymin %)” value with pERK, HCT116 cells is −11%.

As for `N#CCc1cn(-c2nc3c(Nc4c(F)ccc(NS(=O)(=O)c5cccc(Cl)c5Cl)c4F)ncnc3s2)cn1` [Example 124], the IC50 with pERK, HCT116 cells is < 500 nM; on CRAF, < 10 nM; on BRAF, 1 to 10 nM. Moreover, the “HCT116 pERK (Ymin %)” value in the assay with pERK, HCT116 cells came to 12%.

`Cc1cn(-c2nc3c(Nc4c(F)ccc(NS(=O)(=O)c5cccc(Cl)c5Cl)c4F)ncnc3s2)cn1` [Example 125]: the IC50 in the assay on pERK, HCT116 cells is 500 to 1000 nM; at CRAF, < 10 nM; on BRAF, 1 to 10 nM. In the assay with pERK, HCT116 cells, the “HCT116 pERK (Ymin %)” value is reported as 2%.

With `O=S(=O)(Nc1ccc(F)c(Nc2ncnc3sc(-n4cnc5c(CCO)cccc54)nc23)c1F)c1cccc(Cl)c1Cl` [Example 126], the IC50 in the assay on pERK, HCT116 cells was < 500 nM; on CRAF, < 10 nM; at BRAF it was < 1 nM. For the same compound, the “HCT116 pERK (Ymin %)” value in the assay on pERK, HCT116 cells was −9%.

For the compound `O=S(=O)(Nc1ccc(F)c(Nc2ncnc3sc(-n4cnc5c(N6CC7CC6CO7)cccc54)nc23)c1F)c1cccc(Cl)c1Cl` (centres unmarked) [Example 127], the IC50 was < 500 nM with pERK, HCT116 cells; 10 to 50 nM at CRAF; 1 to 10 nM at BRAF. In addition, in the assay with pERK, HCT116 cells, the “HCT116 pERK (Ymin %)” value is 1%.

In the case of `COCCCN(C)c1cccc2c1ncn2-c1nc2c(Nc3c(F)ccc(NS(=O)(=O)c4cccc(Cl)c4Cl)c3F)ncnc2s1` [Example 128], the IC50 is < 500 nM in the assay with pERK, HCT116 cells; 10 to 50 nM at CRAF; 1 to 10 nM on BRAF. Moreover, the “HCT116 pERK (Ymin %)” value with pERK, HCT116 cells was found to be 1%.

On to `O=S(=O)(Nc1ccc(F)c(Nc2ncnc3sc(-n4cnc5c(N6C7CCC6CC(O)C7)cccc54)nc23)c1F)c1cccc(Cl)c1Cl` (centres unmarked) [Example 129], for which the IC50 in the assay on pERK, HCT116 cells is < 500 nM; at CRAF, > 50 nM; on BRAF it was 1 to 10 nM. Besides, the “HCT116 pERK (Ymin %)” value in the assay with pERK, HCT116 cells was determined as 0%.

For the compound `CC(=O)N1CCN(c2cccc3c2ncn3-c2nc3c(Nc4c(F)ccc(NS(=O)(=O)c5cccc(Cl)c5Cl)c4F)ncnc3s2)CC1` [Example 130], the IC50 with pERK, HCT116 cells is < 500 nM; at CRAF, < 10 nM; on BRAF, < 1 nM. In addition, the “HCT116 pERK (Ymin %)” value in the assay on pERK, HCT116 cells is −2%.

Consider `COCCOCCOc1cccc2c1ncn2-c1nc2c(Nc3c(F)ccc(NS(=O)(=O)c4cccc(Cl)c4Cl)c3F)ncnc2s1` [Example 131], for which the IC50 in the assay with pERK, HCT116 cells is < 500 nM; on CRAF, < 10 nM; on BRAF it was 1 to 10 nM. The “HCT116 pERK (Ymin %)” value in the assay with pERK, HCT116 cells was 0%.

Regarding `COC[C@@H]1CCCN1c1cccc2c1ncn2-c1nc2c(Nc3c(F)ccc(NS(=O)(=O)c4cccc(Cl)c4Cl)c3F)ncnc2s1` [Example 132], the IC50 with pERK, HCT116 cells was 1000 to 10000 nM; at CRAF, > 50 nM; on BRAF, > 10 nM. Also, in the assay with pERK, HCT116 cells, the “HCT116 pERK (Ymin %)” value is listed as −11%.

`Nc1ccncc1-c1cccc2c1ncn2-c1nc2c(Nc3c(F)ccc(NS(=O)(=O)c4cccc(Cl)c4Cl)c3F)ncnc2s1` [Example 133]: the 50% inhibitory concentration (IC50) lay within 1000 to 10000 nM in the assay on pERK, HCT116 cells; 10 to 50 nM on CRAF; 1 to 10 nM at BRAF. Also, the “HCT116 pERK (Ymin %)” value in the assay with pERK, HCT116 cells was −12%.

Turning to `Nc1ncccc1-c1cccc2c1ncn2-c1nc2c(Nc3c(F)ccc(NS(=O)(=O)c4cccc(Cl)c4Cl)c3F)ncnc2s1` [Example 134], the IC50 in the assay with pERK, HCT116 cells was < 500 nM; at CRAF, 10 to 50 nM; on BRAF it was 1 to 10 nM. In the assay with pERK, HCT116 cells, the “HCT116 pERK (Ymin %)” value is listed as −5%.

Consider `COC1(C)CCN(c2cccc3c2ncn3-c2nc3c(Nc4c(F)ccc(NS(=O)(=O)c5cccc(Cl)c5Cl)c4F)ncnc3s2)CC1` [Example 135], for which the IC50 with pERK, HCT116 cells was < 500 nM; on CRAF it was > 50 nM; on BRAF, 1 to 10 nM. In addition, the “HCT116 pERK (Ymin %)” value in the assay with pERK, HCT116 cells was −5%.

`O=S(=O)(Nc1ccc(F)c(Nc2ncnc3sc(-n4cnc5c(N6CCC7(CCCO7)CC6)cccc54)nc23)c1F)c1cccc(Cl)c1Cl` [Example 136]: the IC50 with pERK, HCT116 cells was < 500 nM; on CRAF it was 10 to 50 nM; on BRAF it was > 10 nM. The “HCT116 pERK (Ymin %)” value in the assay with pERK, HCT116 cells is recorded as −17%.

As to `O=S(=O)(Nc1ccc(F)c(Nc2ncnc3sc(-n4cnc5c(N6CCC(O)(C(F)(F)F)CC6)cccc54)nc23)c1F)c1cccc(Cl)c1Cl` [Example 137], the IC50 in the assay with pERK, HCT116 cells is < 500 nM; on CRAF it was > 50 nM; on BRAF, > 10 nM. Also, in the assay with pERK, HCT116 cells, the “HCT116 pERK (Ymin %)” value is on record as −14%.

For the compound `CC1(CO)CCN(c2cccc3c2ncn3-c2nc3c(Nc4c(F)ccc(NS(=O)(=O)c5cccc(Cl)c5Cl)c4F)ncnc3s2)CC1` [Example 138], the IC50 was < 500 nM in the assay with pERK, HCT116 cells; > 50 nM at CRAF; > 10 nM at BRAF. Also, the “HCT116 pERK (Ymin %)” value with pERK, HCT116 cells is −14%.

`COC1CCN(c2cccc3c2ncn3-c2nc3c(Nc4c(F)ccc(NS(=O)(=O)c5cccc(Cl)c5Cl)c4F)ncnc3s2)CC1` [Example 139]: the IC50 in the assay on pERK, HCT116 cells was < 500 nM; at CRAF it was 10 to 50 nM; at BRAF, 1 to 10 nM. In the assay on pERK, HCT116 cells, the “HCT116 pERK (Ymin %)” value is −13%.

Regarding `N#CC1CCN(c2cccc3c2ncn3-c2nc3c(Nc4c(F)ccc(NS(=O)(=O)c5cccc(Cl)c5Cl)c4F)ncnc3s2)CC1` [Example 140], the IC50 is < 500 nM in the assay with pERK, HCT116 cells; 10 to 50 nM on CRAF; 1 to 10 nM on BRAF. The “HCT116 pERK (Ymin %)” value with pERK, HCT116 cells is on record as −10%.

On to `O=S(=O)(Nc1ccc(F)c(Nc2ncnc3sc(-n4cnc5c(N6CCOC(CO)C6)cccc54)nc23)c1F)c1cccc(Cl)c1Cl` (centres unmarked) [Example 141], for which the IC50 with pERK, HCT116 cells was < 500 nM; on CRAF it was < 10 nM; on BRAF, < 1 nM. Moreover, in the assay with pERK, HCT116 cells, the “HCT116 pERK (Ymin %)” value is recorded as 2%.

Consider `O=S(=O)(Nc1ccc(F)c(Nc2ncnc3sc(-n4cnc5c(N6CCC(F)(CO)CC6)cccc54)nc23)c1F)c1cccc(Cl)c1Cl` [Example 142], for which the IC50 is < 500 nM with pERK, HCT116 cells; 10 to 50 nM on CRAF; 1 to 10 nM at BRAF. For the same compound, the “HCT116 pERK (Ymin %)” value in the assay on pERK, HCT116 cells turned out to be 0%.

With `O=S(=O)(Nc1ccc(F)c(Nc2ncnc3sc(-n4cnc5c(C6(CO)CC6)cccc54)nc23)c1F)c1cccc(Cl)c1Cl` [Example 143], the IC50 with pERK, HCT116 cells is < 500 nM; at CRAF, < 10 nM; on BRAF, 1 to 10 nM. Also, the “HCT116 pERK (Ymin %)” value in the assay on pERK, HCT116 cells is −8%.

Take `O=S(=O)(Nc1ccc(F)c(Nc2ncnc3sc(-n4cnc5c(N6CCC(O)CC6)cccc54)nc23)c1F)c1cccc(Cl)c1Cl` [Example 144]: the IC50 was < 500 nM with pERK, HCT116 cells; < 10 nM on CRAF; 1 to 10 nM at BRAF. Moreover, in the assay with pERK, HCT116 cells, the “HCT116 pERK (Ymin %)” value is recorded as −4%.
